Laboratory results published in patent US5244895A, “Anti-ulcer agent” (Hidaka; Hiroyoshi, priority 1991, dated 1993).

Key:
[1] = system: water immersion restriction stress ulcer; assay: Water immersion restriction stress ulcer, oral administration; type: in vivo, Crj:Wistar rat (male); conditions: 100 mg/kg oral; for Gastric damage index: 30 min before 6 h water immersion stress, control 15.7; for inhibition in vivo at 100 mg/kg: Rattus norvegicus, 6 h, read-out: Inhibition rate
Protocol: (§1) After the stress loading, the animal was killed by exsanguination and the cardia part of stomach was ligated and then 10 ml of 1% formalin was poured into the stomach and the stomach was extirpated. […] 0.5 ml/body weight of 1% pontamine sky blue physiological saline was injected intravenously 10 minutes before the slaughter. The test compound was administered after dissolved in physiological saline or in physiological saline containing Tween 80 added. Five […] of physiological saline was administered to the control group.

[2] = Acute toxicity, oral administration; type: in vivo, Sle:ICR mouse (male); conditions: 300 mg/kg oral, 6 hours observation; for Mortality rate: deaths/mice
Protocol: (§2) Each test compound was administered to a male Sle:ICR mouse of 29 to 32 g body weight fasted for 18 to 20 hours (5 mice per group) to examine the presence of acute toxicity.

gastric juice secretion [3] = assay: Anti-gastric juice secretion test, intraduodenal administration (pylorus ligation); type: in vivo, Crj:Wistar rat (male); conditions: 100 mg/kg intraduodenal, 4 h after pylorus ligation; for pH of gastric juice: control 1.7; for Amount of gastric juice: control 2.6; for Free hydrochloric acid: control 116; for Total acidity: control 168
Protocol: Each 100 mg/kg of the test compounds was administered duodenally to a male Crj:Wistar rat of 205 to 240 g body weight fasted for ca. 24 hours (7 to 8 rats per group) and immediately after the dose the pylorus was ligated under diethyl ether anesthesia. Four hours after the ligation, the animal was killed and the stomach was isolated and the amount and the pH of gastric juice and free hydrochloric acid contained in it and the total acidity of it were measured to examine the effect of inhibiting gastric juice secretion. The test compounds were dosed after dissolved in physiological saline or in physiological saline containing Tween 80 added. Five […] of physiological saline was administered to the control group.

aspirin ulcer [4] = assay: Anti-aspirin ulcer test, oral administration; type: in vivo, Crj:Wistar rat (male); conditions: 100 mg/kg oral; for Gastric damage index: 30 min before aspirin 200 mg/kg oral, control 76.0; for Gastric damage index / inhibition in vivo at 100 mg/kg: 6 h; for inhibition in vivo at 100 mg/kg: Rattus norvegicus, read-out: Inhibition rate
Protocol: (§3) Each 100 mg/kg of the test compounds was administered orally to a male Crj:Wistar rat of 198 to 243 g body weight fasted for ca. 24 hours (7 to 8 rats per group) and 30 minutes after the administration 200 mg/5 ml/kg of aspirin suspended in 0.5% sodium CMC aqueous solution was administered orally. Six hours later the animals was killed by exsanguination and the cardia part of stomach was ligated and 10 ml of 1% formaline solution was poured into the stomach and the stomach was extirpated. Then, it was incised along the greater curvature side and washed with physiological saline and the major axis of the spotted and linear erosion and ulcer were measured under a steromicroscope and their total sum per head was calculated as the gastric damage index (mm) and the effect was judged by the inhibiting rate against the control group [(Gastric damage index of the control group-Gastric damage index of the test compound)/Gastric damage index of the control group×100]. 0.5 ml/body weight of 1% pontamine sky blue physiological saline was injected intravenously 10 minutes before the slaughter. The test compound was administered after dissolved in physiological saline or in physiological saline containing Tween 80 added. Five […] of physiological saline was administered to the control group.

[5] = Acute toxicity, intraperitoneal administration; type: in vivo, Sle:ICR mouse (male); conditions: 200 mg/kg intraperitoneal, 6 hours observation; for Mortality rate: deaths/mice
Protocol: as §2

[6] = system: water immersion restriction stress ulcer; assay: Water immersion restriction stress ulcer, intraperitoneal administration; type: in vivo, Crj:Wistar rat (male); conditions: 100 mg/kg intraperitoneal; for Gastric damage index: control 22.7; for Inhibition rate: gastric damage index vs control
Protocol: as §1

gastric juice secretion [7] = assay: Anti-gastric juice secretion test, intraperitoneal administration (pylorus ligation); type: in vivo, Crj:Wistar rat (male); conditions: 100 mg/kg intraperitoneal, 30 min before pylorus ligation; for pH of gastric juice: control 1.7; for Amount of gastric juice: control 3.2; for Free hydrochloric acid: control 155; for Total acidity: control 208
aspirin ulcer [8] = assay: Anti-aspirin ulcer test, intraperitoneal administration; type: in vivo, Crj:Wistar rat (male); conditions: for Gastric damage index: 100 mg/kg intraperitoneal (abdominally injected), control 58.8; for Inhibition rate: gastric damage index vs control, 100 mg/kg intraperitoneal
Protocol: as §3
Each 100 mg/kg of the test compound was abdominally injected to a male Crj:Wistar rat of 210 to 265 g body weight fasted for ca. 24 hours (7 to 8 rats per group) and the procedures were carried out in a same manner as in oral administration.

[9] = gastric damage index vs control, water immersion stress
[10] = gastric damage index vs control, aspirin 200 mg/kg

| SMILES | Gastric damage index [1] [mm] | inhibition in vivo at 100 mg/kg [1, 9] [%] | General condition [2] | Mortality rate [2] | pH of gastric juice (gastric juice secretion [3]) | Amount of gastric juice (gastric juice secretion [3]) [ml/100 g body weight] | Free hydrochloric acid (gastric juice secretion [3]) [μEq/100 g body weight] | Total acidity (gastric juice secretion [3]) [μEq/100 g body weight] | Gastric damage index (aspirin ulcer [4]) [mm] | inhibition in vivo at 100 mg/kg (aspirin ulcer [4]; [10]) [%] | General condition [5] | Mortality rate [5] | Gastric damage index [6] [mm] | Inhibition rate [6] [%] | pH of gastric juice (gastric juice secretion [7]) | Amount of gastric juice (gastric juice secretion [7]) [ml/100 g body weight] | Free hydrochloric acid (gastric juice secretion [7]) [μEq/100 body weight] | Total acidity (gastric juice secretion [7]) [μEq/100 body weight] | Gastric damage index (aspirin ulcer [8]) [mm] | Inhibition rate (aspirin ulcer [8]) [%] | other results |
| --- | --- | --- | --- | --- | --- | --- | --- | --- | --- | --- | --- | --- | --- | --- | --- | --- | --- | --- | --- | --- | --- |
| CN(C(Cc1ccc(O)cc1)CN1CCN(C(=O)OCc2ccccc2)CC1)S(=O)(=O)c1cccc2cnccc12 (stereo not drawn) [(4), N-[2-(4-benzyloxycarbonylpiperazinyl)-1-(p-hydroxybenzyl)ethyl]-N-methyl-5-isoquinoline sulfonamide] | 8.4 | 46 | No abnormality | 0/5 | 2.3 | 1.8 | 36 | 74 | 34.6 | 55 | – | – | – | – | – | – | – | – | – | – | – |
| COc1ccc(CC(CN2CCN(C(=O)OCc3ccccc3)CC2)N(C)S(=O)(=O)c2cccc3cnccc23)cc1 (stereo not drawn) [(5), N-[2-(4-benzyloxycarbonylpiperazinyl)-1-(p-methoxybenzyl)ethyl]-N-methyl-5-isoquinoline sulfonamide] | 7.7 | 51 | No abnormality | 0/5 | 2.3 | 1.8 | 48 | 80 | 36.5 | 53 | – | – | – | – | – | – | – | – | – | – | – |
| CN(C(Cc1ccc(O)cc1)CN1CCCN(C(=O)OCc2ccccc2)CC1)S(=O)(=O)c1cccc2cnccc12 (stereo not drawn) [(14), N-[2-(4-benzyloxycarbonylhomopiperazinyl)-1-(p-hydroxybenzyl)ethyl]-N-methyl-5-isoquinoline sulfonamide] | 4.3 | 73 | No abnormality | 0/5 | 3.1 | 0.6 | 8 | 11 | 11.2 | 85 | No abnormality | 0/5 | 3.9 | 83 | 3.0 | 0.6 | 4 | 17 | 5.3 | 91 | – |
| COc1ccc(CC(CN2CCCN(C(=O)OCc3ccccc3)CC2)N(CCN)S(=O)(=O)c2cccc3cnccc23)cc1 (stereo not drawn) [(15), N-[2-(4-benzyloxycarbonylhomopiperazinyl)-1-(p-methoxybenzyl)ethyl]-N-(2-aminoethyl)-5-isoquinoline sulfonamide] | 6.6 | – | – | 0/5 | 2.6 | 1.1 | 22 | 43 | 35.8 | – | – | 0/5 | 6.6 | 71 | 2.6 | 1.3 | 36 | 74 | 11.8 | 80 | Inhibition rate [1, 9]: 58%; Inhibition rate (aspirin ulcer [4]; [10]): 64% |
| COc1ccc(CC(CN2CCCN(C(=O)OCc3ccccc3)CC2)N(CCN(C)C)S(=O)(=O)c2cccc3cnccc23)cc1 (stereo not drawn) [(16), N-[2-(4-benzyloxycarbonylhomopiperazinyl)-1-(p-methoxybenzyl)ethyl]-N-(2-dimethylaminoethyl)-5-isoquinoline sulfonamide] | 4.6 | 70 | No abnormality | 0/5 | 2.9 | 0.9 | 11 | 29 | 17.0 | 78 | No abnormality | 0/5 | 5.4 | 76 | 2.9 | 0.6 | 8 | 24 | 10.6 | 82 | – |
